Reference: US20240034737A1, “Heterocyclic Derivatives as P2X7 Receptor Antagonists” (BREYE THERAPEUTICS APS, priority 2020, published 2024)

Assays:
[1] = biological target: P2X7 receptor (Homo sapiens (Human), UniProt Q99572); test: Human P2X7 channel calcium-influx assay (Fluo-8 NW, FLIPR TETRA, Bz-ATP stimulation); format: cell-based; conditions: HEK-293 cells stably transfected with P2X7 receptor, Low Divalent Cation Assay Buffer, read-out: hP2X7 IC50
Experimental: (§1) Extracellular binding of Bz-ATP to P2X7 receptor opens the channel and allows Ca^2+ influx into the cells. This Ca^2+ entry was measured in HEK-293 cells stably transfected with P2X7 receptor using Screen Quest™ Fluo-8 No Wash Calcium Assay Kit (AAt Bioquest®, cat. 36316). Once inside the cell, the lipophilic blocking groups of Fluo-8 are cleaved by non-specific cell esterases, resulting in a negatively-charged fluorescent dye that stays inside cells. Its fluorescence increases upon binding to calcium. When HEK-293/P2X7 cells are stimulated with Bz-ATP, Ca^2+ enters the cells and the fluorescence of Fluo-8 NW increases.
(§2) HEK-293 cells stably transfected with P2X7 receptor were seeded overnight in growth medium at 10,000 to 20,000 cells/well in 384-well plate. 24 hours later, the medium was removed, and the cells were pre-loaded at RT for 1 hour with 20 μL/w of Fluo-8 NW. Then 10 μL/w of test compounds and reference antagonist A438079 at 3X-concentration were injected with the […] and the kinetic response over a period of five minutes was monitored.

[2] = biological target: mP2X7 (Mus musculus (Mouse), UniProt Q9Z1M0); test: mP2X7 channel calcium-influx assay (Fluo-8 NW, FLIPR TETRA, Bz-ATP stimulation); format: cell-based
Experimental: as §1, §2

mP2X7, sequence (Q9Z1M0 whole entry): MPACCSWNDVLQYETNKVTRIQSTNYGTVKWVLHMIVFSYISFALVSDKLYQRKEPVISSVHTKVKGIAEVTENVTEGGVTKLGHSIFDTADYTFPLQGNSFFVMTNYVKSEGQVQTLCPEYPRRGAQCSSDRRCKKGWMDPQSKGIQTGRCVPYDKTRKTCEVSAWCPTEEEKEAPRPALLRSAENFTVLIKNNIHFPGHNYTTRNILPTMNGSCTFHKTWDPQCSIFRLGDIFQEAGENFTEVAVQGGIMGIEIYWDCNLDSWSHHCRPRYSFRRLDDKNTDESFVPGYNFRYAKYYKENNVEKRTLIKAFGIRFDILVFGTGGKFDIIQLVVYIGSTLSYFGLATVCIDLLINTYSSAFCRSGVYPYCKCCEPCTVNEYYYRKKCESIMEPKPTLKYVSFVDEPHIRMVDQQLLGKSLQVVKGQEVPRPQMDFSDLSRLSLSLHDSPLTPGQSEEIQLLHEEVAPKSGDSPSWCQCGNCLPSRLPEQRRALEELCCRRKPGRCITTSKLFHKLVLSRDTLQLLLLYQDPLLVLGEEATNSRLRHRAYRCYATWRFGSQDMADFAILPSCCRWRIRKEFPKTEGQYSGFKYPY
P2X7 receptor, sequence (Q99572 whole entry): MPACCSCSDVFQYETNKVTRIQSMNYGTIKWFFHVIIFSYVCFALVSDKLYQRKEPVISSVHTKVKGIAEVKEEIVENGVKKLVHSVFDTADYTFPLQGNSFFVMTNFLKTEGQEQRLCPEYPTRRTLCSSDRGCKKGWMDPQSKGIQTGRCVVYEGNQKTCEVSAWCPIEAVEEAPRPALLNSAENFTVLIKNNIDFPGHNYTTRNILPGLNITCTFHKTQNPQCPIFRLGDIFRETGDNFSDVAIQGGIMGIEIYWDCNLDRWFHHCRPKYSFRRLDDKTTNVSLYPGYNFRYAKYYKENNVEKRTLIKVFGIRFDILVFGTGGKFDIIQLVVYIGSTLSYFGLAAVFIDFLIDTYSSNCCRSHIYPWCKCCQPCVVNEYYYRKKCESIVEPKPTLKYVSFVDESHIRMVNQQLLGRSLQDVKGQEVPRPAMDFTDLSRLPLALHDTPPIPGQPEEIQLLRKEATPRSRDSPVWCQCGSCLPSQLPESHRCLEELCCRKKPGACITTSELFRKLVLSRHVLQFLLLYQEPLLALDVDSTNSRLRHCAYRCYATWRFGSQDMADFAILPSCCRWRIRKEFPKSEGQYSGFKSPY

| SMILES | IC50 [1] [nM] | IC50 [2] [nM] |
| --- | --- | --- |
| O=C(NCC(c1scnc1C(F)F)N1CCC(Oc2cncc(-n3cccn3)n2)CC1)c1c(F)cccc1Cl (stereo not shown) [Example 58, 2-Chloro-N-{2-[4-(difluoromethyl)-1,3-thiazol-5-yl]-2-(4-{[6-(1H-pyrazol-1-yl)pyrazin-2-yl]oxy}piperidin-1-yl)ethyl}-6-fluorobenzamide] | 27.4 | 11.5 |
| N#Cc1cnccc1OCC1CCN(C(CNC(=O)c2c(F)cccc2Cl)c2scnc2C(F)F)CC1 (stereo not shown) [Example 122, 2-Chloro-N-[2-(4-{[(3-cyanopyridin-4-yl)oxy]methyl}piperidin-1-yl)-2-[4-(difluoromethyl)-1,3-thiazol-5-yl]ethyl]-6-fluorobenzamide] | 39.6 | 44.2 |
| O=C(NCC(c1scnc1C(F)F)N1CCC(COc2ccn3nccc3n2)CC1)c1c(F)cccc1Cl (stereo not shown) [Example 117, 2-Chloro-N-{2-[4-(difluoromethyl)-1,3-thiazol-5-yl]-2-[4-({pyrazolo[1,5-a]pyrimidin-5-yloxy}methyl)piperidin-1-yl]ethyl}-6-fluorobenzamide] | 48.2 | 35.8 |
| O=C(NCC(c1scnc1C(F)F)N1CCC(COc2nccc(C(F)(F)F)n2)CC1)c1c(F)cccc1Cl (stereo not shown) [Example 114, 2-Chloro-N-{2-[4-(difluoromethyl)-1,3-thiazol-5-yl]-2-[4-({[4-(trifluoromethyl)pyrimidin-2-yl]oxy}methyl)piperidin-1-yl]ethyl}-6-fluorobenzamide] | 50.7 | 37.2 |
| Cc1cnc(OCC2CCN(C(CNC(=O)c3c(F)cccc3Cl)c3scnc3C(F)F)CC2)nc1 (stereo not shown) [Example 100, 2-Chloro-N-{2-[4-(difluoromethyl)-1,3-thiazol-5-yl]-2-(4-{[(5-methylpyrimidin-2-yl)oxy]methyl}piperidin-1-yl)ethyl}-6-fluorobenzamide] | 37.8 | 66.7 |
| O=C(NCC(c1scnc1C(F)F)N1CCC(COc2ccc(F)cn2)CC1)c1c(F)cccc1Cl (stereo not shown) [Example 102, 2-Chloro-N-{2-[4-(difluoromethyl)-1,3-thiazol-5-yl]-2-(4-{[(5-fluoropyridin-2-yl)oxy]methyl}piperidin-1-yl)ethyl}-6-fluorobenzamide] | 32 | 33.8 |
| Cc1cnc(F)nc1OC1CCN(C(CNC(=O)c2c(F)cccc2Cl)c2scnc2C(F)F)CC1 (stereo not shown) [Example 55, 2-Chloro-N-{2-[4-(difluoromethyl)-1,3-thiazol-5-yl]-2-{4-[(2-fluoro-5-methylpyrimidin-4-yl)oxy]piperidin-1-yl}ethyl}-6-fluorobenzamide] | 22.9 | 34 |
| O=C(NCC(c1scnc1C(F)F)N1CCC(Oc2nccc(C(F)(F)F)n2)CC1)c1c(F)cccc1Cl (stereo not shown) [Example 42, 2-Chloro-N-{2-[4-(difluoromethyl)-1,3-thiazol-5-yl]-2-(4-{[4-(trifluoromethyl)pyrimidin-2-yl]oxy}piperidin-1-yl)ethyl}-6-fluorobenzamide] | 60.8 | 108 |
| O=C(NCC(c1scnc1C(F)F)N1CCC(Oc2nccn3nccc23)CC1)c1c(F)cccc1Cl (stereo not shown) [Example 44, 2-Chloro-N-{2-[4-(difluoromethyl)-1,3-thiazol-5-yl]-2-(4-{pyrazolo[1,5-a]pyrazin-4-yloxy}piperidin-1-yl)ethyl}-6-fluorobenzamide] | 27.9 | 30.6 |
| O=C(NCC(c1scnc1C(F)F)N1CCC(COc2cc(F)ccn2)CC1)c1c(F)cccc1Cl (stereo not shown) [Example 126, 2-chloro-N-{2-[4-(difluoromethyl)-1,3-thiazol-5-yl]-2-(4-{[(4-fluoropyridin-2-yl)oxy]methyl}piperidin-1-yl)ethyl}-6-fluorobenzamide] | 36.5 | 34.7 |
| COc1ccnc(OC2CCN(C(CNC(=O)c3c(F)cccc3Cl)c3scnc3C(F)F)CC2)n1 (stereo not shown) [Example 64, 2-Chloro-N-{2-[4-(difluoromethyl)-1,3-thiazol-5-yl]-2-{4-[(4-methoxypyrimidin-2-yl)oxy]piperidin-1-yl}ethyl}-6-fluorobenzamide] | 65.8 | 209 |
| Cc1cnc(OC2CCN(C(CNC(=O)c3c(F)cccc3Cl)c3scnc3C(F)F)CC2)nc1 (stereo not shown) [Example 28, 2-Chloro-N-{2-[4-(difluoromethyl)-1,3-thiazol-5-yl]-2-{4-[(5-methylpyrimidin-2-yl)oxy]piperidin-1-yl}ethyl}-6-fluorobenzamide] | 64.4 | 206 |
| N#Cc1ccnc(OC2CCN(C(CNC(=O)c3c(F)cccc3Cl)c3scnc3C(F)F)CC2)c1 (stereo not shown) [Example 79, 2-Chloro-N-(2-{4-[(4-cyanopyridin-2-yl)oxy]piperidin-1-yl}-2-[4-(difluoromethyl)-1,3-thiazol-5-yl]ethyl)-6-fluorobenzamide] | 30.1 | 41.4 |
| Cc1cccnc1OCC1CCN(C(CNC(=O)c2c(F)cccc2Cl)c2scnc2C(F)F)CC1 (stereo not shown) [Example 99, 2-Chloro-N-{2-[4-(difluoromethyl)-1,3-thiazol-5-yl]-2-(4-{[(3-methylpyridin-2-yl)oxy]methyl}piperidin-1-yl)ethyl}-6-fluorobenzamide] | 22.8 | 15.2 |
| N#Cc1ccncc1OC1CCN(C(CNC(=O)c2c(F)cccc2Cl)c2scnc2C(F)F)CC1 (stereo not shown) [Example 38, 2-Chloro-N-(2-{4-[(4-cyanopyridin-3-yl)oxy]piperidin-1-yl}-2-[4-(difluoromethyl)-1,3-thiazol-5-yl]ethyl)-6-fluorobenzamide] | 57.5 | 79.6 |
| O=C(NCC(c1scnc1C(F)F)N1CCC(Oc2cncc(F)n2)CC1)c1c(F)cccc1Cl (stereo not shown) [Example 33, 2-Chloro-N-{2-[4-(difluoromethyl)-1,3-thiazol-5-yl]-2-{4-[(6-fluoropyrazin-2-yl)oxy]piperidin-1-yl}ethyl}-6-fluorobenzamide] | 39.9 | 52.5 |
| O=C(NCC(c1scnc1C(F)F)N1CCC(Oc2nc(Cl)cs2)CC1)c1c(F)cccc1Cl (stereo not shown) [Example 12, 2-Chloro-N-(2-{4-[(4-chloro-1,3-thiazol-2-yl)oxy]piperidin-1-yl}-2-[4-(difluoromethyl)-1,3-thiazol-5-yl]ethyl)-6-fluorobenzamide] | 11.8 | 43.9 |
| O=C(NCC(c1scnc1C(F)F)N1CCC(Oc2nccnc2F)CC1)c1c(F)cccc1Cl (stereo not shown) [Example 34, 2-Chloro-N-{2-[4-(difluoromethyl)-1,3-thiazol-5-yl]-2-{4-[(3-fluoropyrazin-2-yl)oxy]piperidin-1-yl}ethyl}-6-fluorobenzamide] | 55.5 | 174 |
| O=C(NCC(c1scnc1C(F)F)N1CCC(Oc2cccnn2)CC1)c1c(F)cccc1Cl (stereo not shown) [Example 71, 2-Chloro-N-{2-[4-(difluoromethyl)-1,3-thiazol-5-yl]-2-[4-(pyridazin-3-yloxy)piperidin-1-yl]ethyl}-6-fluorobenzamide] | 58.9 | 222 |
| Cc1nsc(OC2CCN(C(CNC(=O)c3c(F)cccc3Cl)c3scnc3C(F)F)CC2)c1C#N (stereo not shown) [Example 53, 2-Chloro-N-(2-{4-[(4-cyano-3-methyl-1,2-thiazol-5-yl)oxy]piperidin-1-yl}-2-[4-(difluoromethyl)-1,3-thiazol-5-yl]ethyl)-6-fluorobenzamide] | 41.5 | 38.7 |
| Cc1cc(OC2CCN(C(CNC(=O)c3c(F)cccc3Cl)c3scnc3C(F)F)CC2)nc(F)n1 (stereo not shown) [Example 54, 2-Chloro-N-{2-[4-(difluoromethyl)-1,3-thiazol-5-yl]-2-{4-[(2-fluoro-6-methylpyrimidin-4-yl)oxy]piperidin-1-yl}ethyl}-6-fluorobenzamide] | 22.8 | 52.9 |
| O=C(NCC(c1scnc1C(F)F)N1CCC(Oc2cc(C(F)(F)F)ncn2)CC1)c1c(F)cccc1Cl (stereo not shown) [Example 43, 2-Chloro-N-{2-[4-(difluoromethyl)-1,3-thiazol-5-yl]-2-(4-{[6-(trifluoromethyl)pyrimidin-4-yl]oxy}piperidin-1-yl)ethyl}-6-fluorobenzamide] | 69.2 | 63.9 |
| N#Cc1ncccc1OC1CCN(C(CNC(=O)c2c(F)cccc2Cl)c2scnc2C(F)F)CC1 (stereo not shown) [Example 18, 2-Chloro-N-(2-{4-[(2-cyanopyridin-3-yl)oxy]piperidin-1-yl}-2-[4-(difluoromethyl)-1,3-thiazol-5-yl]ethyl)-6-fluorobenzamide] | 41.1 | 186 |
| O=C(NCC(c1scnc1C(F)F)N1CCC(Oc2cccc(F)n2)CC1)c1c(F)cccc1Cl (stereo not shown) [Example 72, 2-Chloro-N-{2-[4-(difluoromethyl)-1,3-thiazol-5-yl]-2-{4-[(6-fluoropyridin-2-yl)oxy]piperidin-1-yl}ethyl}-6-fluorobenzamide] | 11.9 | 29.4 |
| Cc1ncnc(OC2CCN(C(CNC(=O)c3c(F)cccc3Cl)c3scnc3C(F)F)CC2)c1F (stereo not shown) [Example 56, 2-Chloro-N-{2-[4-(difluoromethyl)-1,3-thiazol-5-yl]-2-{4-[(5-fluoro-6-methylpyrimidin-4-yl)oxy]piperidin-1-yl}ethyl}-6-fluorobenzamide] | 53.8 | 82 |
| O=C(NCC(c1scnc1C(F)F)N1CCC(Oc2nc3ccccc3s2)CC1)c1c(F)cccc1Cl (stereo not shown) [Example 20, N-{2-[4-(1,3-Benzothiazol-2-yloxy)piperidin-1-yl]-2-[4-(difluoromethyl)-1,3-thiazol-5-yl]ethyl}-2-chloro-6-fluorobenzamide] | 17.5 | 14 |
